In a compilation of properties of binary mixtures (doi:10.1016/j.fluid.2023.113736):

Experiment: xn = mol fraction of the nth substance listed
Conditions: 100 kPa, x1 = 0.5

C[N+](CCO)(CCO)CCOCCO.[Cl-] + NC(N)=O
Conditions	viscosity [mPa·s]
283.15 K	45000
288.15 K	23200
293.15 K	12700
298.15 K	7350
303.15 K	4396
308.15 K	2744
313.15 K	1766
318.15 K	1172
323.15 K	794
333.15 K	400
338.15 K	295
